Data on 16 compounds can be found in patent publication US12692254B2, “Benzimidazole inhibitors of PAD enzymes” (BRISTOL-MYERS SQUIBB COMPANY, priority 2018, dated 2026).

The term IC50 denotes the midpoint of a concentration-inhibition curve.

The experiment has as its target human PAD4 (hPAD4) (Homo sapiens, UniProt Q9UM07). As to the kind of experiment: RFMS human PAD4 functional assay (rapid-fire mass spectrum). To be noted: 5 nM hPAD4 enzyme, 250 μM BAEE, 50 μM Calcium; 30 min preincubation, 90 min reaction at 37° C. It is filed as biochemical. Summed up: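 PAD4 (10 nM) preincubated 30 min with compound (top final 50 μM), then BAEE substrate added in pH 7.5 HEPES buffer with DTT, 50 μM calcium, TPEN; 90 min at 37° C. After TCA quench, citrulline derivatized with phenyl glyoxal (4 mM final, 30 min, 37° C) and quantified by RapidFire MS against internal standard.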

human PAD4 (hPAD4), sequence (Q9UM07 whole entry): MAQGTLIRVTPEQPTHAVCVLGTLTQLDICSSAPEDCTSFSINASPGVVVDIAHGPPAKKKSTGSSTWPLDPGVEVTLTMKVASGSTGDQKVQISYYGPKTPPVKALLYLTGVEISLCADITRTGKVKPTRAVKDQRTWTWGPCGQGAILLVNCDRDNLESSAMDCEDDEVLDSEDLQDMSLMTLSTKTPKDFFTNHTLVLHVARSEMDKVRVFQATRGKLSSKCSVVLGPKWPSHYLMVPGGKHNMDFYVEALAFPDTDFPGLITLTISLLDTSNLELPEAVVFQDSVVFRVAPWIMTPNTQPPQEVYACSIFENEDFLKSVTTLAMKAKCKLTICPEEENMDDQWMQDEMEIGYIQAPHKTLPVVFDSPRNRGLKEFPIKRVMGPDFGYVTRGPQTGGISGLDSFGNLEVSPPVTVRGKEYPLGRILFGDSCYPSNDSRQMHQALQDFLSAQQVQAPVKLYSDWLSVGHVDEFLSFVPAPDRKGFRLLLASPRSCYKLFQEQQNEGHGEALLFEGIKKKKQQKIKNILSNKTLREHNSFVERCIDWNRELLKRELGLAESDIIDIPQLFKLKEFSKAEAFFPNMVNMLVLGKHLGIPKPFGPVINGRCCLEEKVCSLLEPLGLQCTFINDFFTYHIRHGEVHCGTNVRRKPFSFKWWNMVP

Regarding `COc1ccc2cc(-c3nc4cc(C(=O)N5C[C@H]6CC[C@@H]5[C@@H]6N)cc(OC)c4n3CC3CN(c4ccnc(C#N)n4)C3)n(CC3CC3)c2n1` [Example 2, 4-(3-((5-((1R,4R,7R)-7-amino-2-azabicyclo[2.2.1]heptane-2-carbonyl)-2-(1-(cyclopropylmethyl)-6-methoxy-1H-pyrrolo[2,3-b]pyridin-2-yl)-7-methoxy-1H-benzo[d]imidazol-1-yl)methyl)azetidin-1-yl)pyrimidine-2-carbonitrile], the IC50 worked out at 49 nM.
For `COc1cc(C(=O)N2CC3CCC2[C@@H]3N)cc2nc(-c3cc4cccnc4n3CC3CC3)n(Cc3cnn(-c4ncccn4)c3)c12` (stereo partly drawn) [Example 398, (7R)-2-{2-[1-(cyclopropylmethyl)-1H-pyrrolo[2,3-b]pyridin-2-yl]-7-methoxy-1-{[1-(pyrimidin-2-yl)-1H-pyrazol-4-yl]methyl}-1H-1,3-benzodiazole-5-carbonyl}-2-azabicyclo[2.2.1]heptan-7-amine] the value was 54 nM.
For `COc1cc(C(=O)N2CC3CCC2[C@@H]3N)cc2nc(-c3cc4cccnc4n3CC3CC3)n(Cc3cnn(-c4ccccn4)c3)c12` (stereo partly drawn) [Example 400, (7R)-2-{2-[1-(cyclopropylmethyl)-1H-pyrrolo[2,3-b]pyridin-2-yl]-7-methoxy-1-{[1-(pyridin-2-yl)-1H-pyrazol-4-yl]methyl}-1H-1,3-benzodiazole-5-carbonyl)-2-azabicyclo[2.2.1]heptan-7-amine] the value was 57 nM; for `COc1cc(C(=O)N2CC3CCC2[C@@H]3N)cc2nc(-c3cc4ccccc4n3CC3CC3)n(Cc3cnn(-c4ccccn4)c3)c12` (stereo partly drawn) [Example 348, (7R)-2-{2-[1-(cyclopropylmethyl)-1H-indol-2-yl]-7-methoxy-1-{[1-(pyridin-2-yl)-1H-pyrazol-4-yl]methyl}-1H-1,3-benzodiazoie-5-carbonyl}-2-azabicyclo[2.2.1]heptan-7-amine], 14 nM.
For `COc1cc(C(=O)N2C[C@H]3CC[C@@H]2[C@@H]3N)cc2nc(-c3cc4cccnc4n3CC3CC3)n(C3CN(c4ccccc4)C3)c12` [Example 81, (1R,4R,7R)-2-{2-[1-(cyclopropylmethyl)-1H-pyrrolo[2,3-b]pyridin-2-yl]-7-methoxy-1-(1-phenylazetidin-3-yl)-1H-1,3-benzodiazole-5-carbonyl}-2-azabicyclo[2.2.1]heptan-7-amine] the value was 403 nM.
In the case of `COc1cc(C(=O)N2C[C@H]3CC[C@@H]2[C@@H]3N)cc2nc(-c3cc4cccnc4n3CC3CC3)n(C3CN(c4cncc(C#N)c4)C3)c12` [Example 73, 5-(3-{5-[(1R,4R,7R)-7-amino-2-azabicyclo[2.2.1]heptane-2-carbonyl]-2-[1-(cyclopropylmethyl)-1H-pyrrolo[2,3-b]pyridin-2-yl]-7-methoxy-1H-1,3-benzodiazol-1-yl}azetidin-1-yl)pyridine-3-carbonitrile], the IC50 came to 149 nM.
As for `COc1cc(C(=O)N2C[C@H]3CC[C@@H]2[C@@H]3N)cc2nc(-c3cc4cccnc4n3CC3CC3)n(CC3CN(c4nnc(C)o4)C3)c12` [Example 56, (1R,4R,7R)-2-{2-[1-(cyclopropylmethyl)-1H-pyrrolo[2,3-b]pyridin-2-yl]-7-methoxy-1-{[1-(5-methyl-1,3,4-oxadiazol-2-yl)azetidin-3-yl]methyl}-1H-1,3-benzodiazole-5-carbonyl}-2-azabicyclo[2.2.1]heptan-7-amine], the IC50 turned out to be 166 nM.
In the case of `COc1cc(C(=O)N2CC3CCC2[C@@H]3N)cc2nc(-c3cc4ccccc4n3CC3CC3)n(Cc3cnn(-c4ccc(C(F)F)nc4)c3)c12` (stereo partly drawn) [Example 387, (7R)-2-{2-[1-(cyclopropylmethyl)-1H-indol-2-yl]-1-({1-[6-(difluoromethyl)pyridin-3-yl]-1H-pyrazol-4-yl}methyl)-7-methoxy-1H-1,3-benzodiazole-5-carbonyl}-2-azabicyclo[2.2.1]heptan-7-amine], the IC50 turned out to be 42 nM.
For `COc1cc(C(=O)N2C[C@H]3CC[C@@H]2[C@@H]3N)cc2nc(-c3cc4cccnc4n3CC3CC3)n(CC3CN(S(=O)(=O)C(C)C)C3)c12` [Example 335, (1R,4R,7R)-2-{2-[1-(cyclopropylmethyl)-1H-pyrrolo[2,3-b]pyridin-2-yl]-7-methoxy-1-{[1-(propane-2-sulfonyl)azetidin-3-yl)methyl}-1H-1,3-benzodiazole-5-carbonyl}-2-azabicyclo[2.2.1]heptan-7-amine] the value was 245 nM; for `COc1cc(C(=O)N2CC3CCC2[C@@H]3N)cc2nc(-c3cc4ccccc4n3CC3CC3)n(Cc3cn[nH]n3)c12` (stereo partly drawn) [Example 490, (7R)-2-{2-[1-(cyclopropylmethyl)-1H-indol-2-yl]-7-methoxy-1-[(2H-1,2,3-triazol-4-yl)methyl]-1H-1,3-benzodiazole-5-carbonyl}-2-azabicyclo[2.2.1]heptan-7-amine], 58 nM.
For `COc1cc(C(=O)N2C[C@H]3CC[C@@H]2[C@@H]3N)cc2nc(-c3cc4ccccc4n3CC3CC3)n(CC3CN(C(=O)c4ccc(C)cc4)C3)c12` [Example 156, (1R,4R,7R)-2-{2-[1-(cyclopropylmethyl)-1H-indol-2-yl]-7-methoxy-1-{[1-(4-methylbenzoyl)azetidin-3-yl]methyl}-1H-1,3-benzodiazole-5-carbonyl}-2-azabicyclo[2.2.1]heptan-7-amine] the value was 22 nM; for `COc1cc(C(=O)N2CC3CCC2[C@@H]3N)cc2nc(-c3cc4ccccc4n3CC3CC3)n(Cc3cnn(-c4cncnc4)c3)c12` (stereo partly drawn) [Example 379, (7R)-2-{2-[1-(cyclopropylmethyl)-1H-indol-2-yl]-7-methoxy-1-{[1-(pyrimidin-5-yl)-1H-pyrazol-4-yl]methyl}-1H-1,3-benzodiazole-5-carbonyl}-2-azabicyclo[2.2.1]heptan-7-amine], 37 nM.
For `COc1cc(C(=O)N2C[C@H](N)C[C@@H](F)C2)cc2nc(-c3cc4ccccc4n3CC3CC3)n(Cc3cccnc3)c12` [Example 248, ((3R,5R)-3-amino-5-fluoropiperidin-1-yl)(2-(1-(cyclopropylmethyl)-1H-indol-2-yl)-7-methoxy-1-(pyridin-3-ylmethyl)-1H-benzo[d]imidazol-5-yl)methanone] the value was 116 nM; for `COc1cc(C(=O)N2C[C@H]3CC[C@@H]2[C@@H]3N)cc2nc(-c3cc4cccnc4n3CC3CC3)n(C3CN(C(=O)c4ccnc(O)c4)C3)c12` [Example 190, 4-(3-{5-[(1R,4R,7R)-7-amino-2-azabicyclo[2.2.1]heptane-2-carbonyl]-2-[1-(cyclopropylmethyl)-1H-pyrrolo[2,3-b]pyridin-2-yl]-7-methoxy-1H-1,3-benzodiazol-1-yl}azetidine-1-carbonyl)pyridin-2-ol], 782 nM.
`COc1cc(C(=O)N2C[C@H]3CC[C@@H]2[C@@H]3N)cc2nc(-c3cc4ccccc4n3CC3CC3)n(Cc3cccs3)c12` [Example 256, (1R,4R,7R)-2-{2-[1-(cyclopropylmethyl)-1H-indol-2-yl]-7-methoxy-1-[(thiophen-2-yl)methyl]-1H-1,3-benzodiazole-5-carbonyl}-2-azabicyclo[2.2.1]heptan-7-amine]: the IC50 is 41 nM.
As for `COc1cc(C(=O)N2CC3CCC2[C@@H]3N)cc2nc(-c3cc4ccccc4n3CC3CC3)n(CC3CN(C(=O)[C@H]4C[C@@H]4C)C3)c12` (stereo partly drawn) [Example 172, (1R,4R,7R)-2-{2-[1-(cyclopropylmethyl)-1H-indol-2-yl]-7-methoxy-1-({1-[(1S,2S)-2-methylcyclopropanecarbonyl]aze-tidin-3-yl}methyl)-1H-1,3-benzodiazole-5-carbonyl}-2-azabicyclo[2.2.1]heptan-7-amine], the IC50 was 42 nM.
